Source: ChEMBL document CHEMBL6127139, “Lysine-Targeted Covalent Inhibitors of PI3Kδ Synthesis and Screening by In Situ Interaction Upgradation” (J Med Chem, 2024)
The source made the active and inactive calls. The rule behind the calls is not given here.

Key:
[1] = system: SU-DHL-6; assay: Antitumor activity against human SU-DHL-6 cells xenografted in male nude mouse assessed as tumor growth inhibition at 5 mg/kg/day, po administered for 14 days relative to control; assay type: functional; details: SU-DHL-6, 336 h, time 14 day, read-out: TGI
[2] = system: SU-DHL-6; assay: Induction of apoptosis in human SU-DHL-6 cells assessed as late apoptotic cells at 1 uM incubated for 48 hrs by Annexin V-FITC/PI staining based flow cytometric analysis (reference value: 4.12 %); assay type: functional
[3] = system: SU-DHL-6; assay: Inhibition of AKT phosphorylation in human SU-DHL-6 cells preincubated for 12 hrs followed by compound washout and measured upto 72 hrs by Western blot analysis; assay type: cell-based
[4] = system: MCF7; assay: Growth inhibition of human MCF7 cells incubated for 72 hrs by MTT assay; assay type: functional
[5] = system: SU-DHL-6; assay: Induction of apoptosis in human SU-DHL-6 cells assessed as necrotic cells at 1 uM incubated for 48 hrs by Annexin V-FITC/PI staining based flow cytometric analysis (reference value: 1.05 %); assay type: functional
[6] = Growth inhibition of PI3Kdelta-overexpressing human Pfeiffer cells incubated for 72 hrs by MTT assay; assay type: functional
[7] = system: HCT-116; assay: Growth inhibition of human HCT-116 cells incubated for 72 hrs by MTT assay; assay type: functional
[8] = system: SU-DHL-6; assay: Induction of apoptosis in human SU-DHL-6 cells assessed as late apoptotic cells at 10 uM incubated for 48 hrs by Annexin V-FITC/PI staining based flow cytometric analysis (reference value: 4.12 %); assay type: functional
[9] = system: SU-DHL-6; assay: Inhibition of AKT phosphorylation in human SU-DHL-6 cells preincubated for 12 hrs followed by compound washout and measured after 24 hrs by Western blot analysis; assay type: cell-based
[10] = system: SU-DHL-6; assay: Antiproliferative activity against human SU-DHL-6 cells assessed as inhibition of cell viability preincubated for 12 hrs followed by compound washout and measured after 60 hrs by MTT assay; assay type: functional, cell-based
[11] = system: SU-DHL-6; assay: Induction of apoptosis in human SU-DHL-6 cells assessed as early apoptotic cells at 10 uM incubated for 48 hrs by Annexin V-FITC/PI staining based flow cytometric analysis (reference value: 5.02 %); assay type: functional
[12] = system: SU-DHL-6; assay: Induction of apoptosis in human SU-DHL-6 cells assessed as viable cells at 10 uM incubated for 48 hrs by Annexin V-FITC/PI staining based flow cytometric analysis (reference value: 89.81 %); assay type: functional; details: read-out: Activity
[13] = system: Raji; assay: Growth inhibition of human Raji cells incubated for 72 hrs by MTT assay; assay type: functional
[14] = Growth inhibition of PI3Kdelta-overexpressing human SU-DHL-6 cells incubated for 72 hrs by MTT assay; assay type: functional
[15] = system: SU-DHL-6; assay: Induction of apoptosis in human SU-DHL-6 cells assessed as necrotic cells at 10 uM incubated for 48 hrs by Annexin V-FITC/PI staining based flow cytometric analysis (reference value: 1.05 %); assay type: functional
[16] = system: SU-DHL-6; assay: Induction of apoptosis in human SU-DHL-6 cells assessed as viable cells at 1 uM incubated for 48 hrs by Annexin V-FITC/PI staining based flow cytometric analysis (reference value: 89.81 %); assay type: functional; details: read-out: Activity
[17] = system: SU-DHL-6; assay: Induction of apoptosis in human SU-DHL-6 cells assessed as early apoptotic cells at 1 uM incubated for 48 hrs by Annexin V-FITC/PI staining based flow cytometric analysis (reference value: 5.02 %); assay type: functional

Q: With `CC[C@H](Nc1ncnc2[nH]cnc12)c1nc2cccc(F)c2c(=O)n1-c1ccccc1` [IDELALISIB] as the compound, how does the inhibition in vivo at 5 mg/kg/day [1] read?
A: Its inhibition in vivo at 5 mg/kg/day is 50%.

Q: What about the Activity [2] of the same compound?
A: Its Activity is 3.46%.

Q: And the inhibition [3]?
A: Its inhibition is “inactive”.

Q: And the GI50 [4]?
A: Its GI50 is > 10 µM.

Q: And the Activity [5]?
A: The Activity was 0.8%.

Q: What about the GI50 [6] of the same compound?
A: The GI50 was 8.33 µM.

Q: And the GI50 [7]?
A: Its GI50 is > 10 µM.

Q: What about the Activity [8] of the same compound?
A: The Activity was 6.75%.

Q: What about the inhibition [9] of the same compound?
A: Its inhibition is “inactive”.

Q: And the Activity [10]?
A: Its Activity is “inactive”.

Q: What about the Activity [11] of the same compound?
A: Its Activity is 13.29%.

Q: And the viability at 10 µM [12]?
A: Its viability at 10 µM is 79.4%.

Q: And the GI50 [13]?
A: Its GI50 is > 10 µM.

Q: And the GI50 [14]?
A: The GI50 was 0.2 µM.

Q: And the Activity [15]?
A: Its Activity is 0.6%.

Q: And the viability at 1 µM [16]?
A: Its viability at 1 µM is 87%.

Q: And the Activity [17]?
A: The Activity was 6.76%.
